# Data taken from US12157713B2, “Conjugated oligoelectrolytes as antimicrobial agents” (Nanyang Technological University, priority 2018, dated 2024).
# Tests used:
# [1] = Intrinsic clearance in human; assay type: in vitro ADME
# HepG2 cells = test: Toxicity on HepG2 cells; assay type: cell-based; conditions: Homo sapiens
# [2] = Intrinsic hepatic clearance in mice; assay type: in vitro ADME
# human erythrocytes = test: Haemolysis assay; assay type: cell-based
# Experimental: 1 mL of mammalian blood, collected from a healthy donor, was mixed with 9 mL of PBS and centrifuged at 1,000 rpm for 5 min. Red blood cell pellet was collected and subsequently washed with PBS three times and diluted to a final concentration of 5% v/v. The various COEs were dissolved in PBS and two folds serial diluted in a 96-well microplate. 50 μL of red blood cell stock was mixed with 50 μL of COE solution in each well and incubated for 1 hr at 37° C. under shaking. The microplate was centrifuged at 1,000 rpm for 10 min. 80 μL aliquots of the supernatant were then transferred to a new 96-well microplate and diluted with another 80 μL of PBS. Haemolytic activity was calculated by measuring absorbance at 540 nm using a 96-well plate spectrophotometer. Triton X-100 (0.1% in PBS), which is able to lyse red blood cells, completely was used as positive control, while PBS was used as negative control. The haemolysis percentage was calculated using the following formula:
# [formula] where Op is the absorbance of the COE-treated sample, Ob is the absorbance of negative control and Ot is the absorbance of positive control. Results and Discussions
# The selectivity of COEs towards bacteria or mammalian cells can be quantified using the ratio between the concentrations leading to 50% lysis of human erythrocytes (HC50) and the MIC value.
smiles,measurement,setting,value
CN(C)CC[N+](C)(C)CCCCCCOc1ccc(/C=C/c2ccc(OCCCCCC[N+](C)(C)CCN(C)C)cc2)cc1 [COE-D62N],intrinsic clearance in human,[1],good
same,IC50,HepG2 cells,> 30 µM
same,intrinsic hepatic clearance in mice,[2],good
same,Toxicity towards erythrocytes,human erythrocytes,non-toxic
